These are literature values, as cited in patent US20210308436A1, “COMPLETE UPPER RESPIRATORY TRACT CLEANSING SYSTEM AND ITS USE” (priority 2013, published 2021).

This data set concerns perennial allergic rhinitis. The following applies: 1% solution in normal saline, once every 48 hours for 4 weeks, vs placebo wash (normal saline only).

Where a name gives a salt, the structure may show the parent alone.

With `CN[C@@H](C)[C@H](O)c1ccccc1` [ephedrine hydrochloride], the “peak nasal inspiratory flow rates” value is reported as “significant improvement” and the symptom scores entry is “significant improvement”.
